Laboratory results reported in patent US8859569B2, “Substituted annellated pyrimidines and use thereof” (Bayer Pharma Aktiengesellschaft, priority 2011, dated 2014).

How the values were obtained:
aorta rings = assay: Vessel-relaxing action in vitro (aorta rings, phenylephrine contraction); conditions: Oryctolagus cuniculus, concentration required to reduce phenylephrine-induced contraction of rabbit aorta rings by 50%
Method in brief: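 Rabbit aortic rings 1.5 mm wide were held under preload in carbogen-gassed Krebs-Henseleit at 37 °C and contracted with cumulative phenylephrine. Test substance was added in rising doses on successive passes, each compared with the preceding control contraction. IC50 is the concentration that halves contraction, with 0.1% DMSO in the bath.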

[1] = target: T1, recombinant guanylate cyclase reporter cell line (Rattus norvegicus, UniProt P19686+P20595); assay: Action on recombinant guanylate cyclase reporter cell line; format: cell-based
T1 construct: expressed in transfected cells
T1 sequence (P20595 1-619): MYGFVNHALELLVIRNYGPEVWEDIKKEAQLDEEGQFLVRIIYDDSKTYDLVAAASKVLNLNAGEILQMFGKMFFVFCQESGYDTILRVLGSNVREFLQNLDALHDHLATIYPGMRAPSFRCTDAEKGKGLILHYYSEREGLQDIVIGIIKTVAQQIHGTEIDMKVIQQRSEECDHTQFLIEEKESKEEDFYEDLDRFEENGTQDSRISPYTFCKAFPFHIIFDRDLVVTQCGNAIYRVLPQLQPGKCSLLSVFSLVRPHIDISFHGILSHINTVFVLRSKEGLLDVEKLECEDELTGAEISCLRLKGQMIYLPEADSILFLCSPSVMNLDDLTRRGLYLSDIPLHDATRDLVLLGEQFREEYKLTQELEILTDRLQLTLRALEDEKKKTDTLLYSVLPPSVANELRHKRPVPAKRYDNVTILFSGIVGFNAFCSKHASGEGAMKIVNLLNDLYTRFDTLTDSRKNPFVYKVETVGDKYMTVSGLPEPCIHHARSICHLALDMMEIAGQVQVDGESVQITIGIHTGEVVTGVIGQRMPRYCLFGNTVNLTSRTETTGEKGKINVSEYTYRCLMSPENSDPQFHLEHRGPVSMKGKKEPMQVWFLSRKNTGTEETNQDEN
T1 sequence (P19686 1-690): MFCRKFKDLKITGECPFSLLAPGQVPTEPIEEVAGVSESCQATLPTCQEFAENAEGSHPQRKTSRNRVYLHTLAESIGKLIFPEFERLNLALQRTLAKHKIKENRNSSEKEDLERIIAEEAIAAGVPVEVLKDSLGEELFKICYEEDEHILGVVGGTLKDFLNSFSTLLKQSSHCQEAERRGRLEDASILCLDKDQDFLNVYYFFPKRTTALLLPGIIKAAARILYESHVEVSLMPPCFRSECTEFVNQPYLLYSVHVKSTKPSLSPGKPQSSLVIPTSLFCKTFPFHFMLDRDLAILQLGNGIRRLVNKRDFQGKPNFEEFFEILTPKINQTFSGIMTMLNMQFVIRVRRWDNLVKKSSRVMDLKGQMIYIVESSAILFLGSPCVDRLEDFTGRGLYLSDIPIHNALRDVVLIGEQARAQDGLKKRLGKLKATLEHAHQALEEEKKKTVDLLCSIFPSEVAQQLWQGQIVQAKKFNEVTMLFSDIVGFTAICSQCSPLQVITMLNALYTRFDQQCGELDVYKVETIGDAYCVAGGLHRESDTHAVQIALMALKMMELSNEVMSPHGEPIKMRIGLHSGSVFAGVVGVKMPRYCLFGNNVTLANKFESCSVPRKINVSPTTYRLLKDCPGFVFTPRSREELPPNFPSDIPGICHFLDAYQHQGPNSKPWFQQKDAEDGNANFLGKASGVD
Protocol: B-2. Action on Recombinant Guanylate Cyclase Reporter Cell Line
The cellular action of the compounds according to the invention is determined on a recombinant guanylate cyclase reporter cell line, as described in F. Wunder et al., Anal. Biochem. 339, 104-112 (2005).

[2] = target: T2, human phosphodiesterase 5 (PDE-5) (Homo sapiens, UniProt O76074); assay: Inhibition of human phosphodiesterase 5 (PDE-5), SPA assay; format: biochemical; conditions: PDE-5 preparation from human platelets, [8-3H]cGMP substrate
T2 construct: PDE-5 preparations are obtained from human platelets by lysis; from tissue; host or cells: human platelets
Method in brief: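 Scintillation proximity read-out with yttrium beads after 60 min room-temperature hydrolysis of 0.025 μCi [8-3H]cGMP, pH 7.5 Tris/MgCl2/EDTA buffer. Enzyme is a human platelet PDE-5 fraction, diluted to keep substrate turnover below 70%. Test concentrations 4 μM–0.0018 μM final; IC50 from inhibition curves.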

| SMILES | IC50 (aorta rings) | MEC (minimal effective concentration) [1] | IC50 [2] |
| --- | --- | --- | --- |
| CC1(C)C(=O)Nc2nc(-c3nn(Cc4ccccc4F)c4ncccc34)nc(N3CC(C(F)(F)F)CCC3=O)c21 (stereo not drawn) [Example 91, 2-[1-(2-Fluorobenzyl)-1H-pyrazolo[3,4-b]pyridin-3-yl]-5,5-dimethyl-4-[2-oxo-5-(trifluoromethyl)piperidin-1-yl]-5,7-dihydro-6H-pyrrolo[2,3-d]pyrimidin-6-one] | 517 nM | 0.03 μm | 600 nM |
| CC1C(=O)NCCN1c1nc(-c2nn(Cc3ccccc3F)c3ncccc23)nc2c1C(C)(C)C(=O)N2 (stereo not drawn) [Example 92, 2-[1-(2-Fluorobenzyl)-1H-pyrazolo[3,4-b]pyridin-3-yl]-5,5-dimethyl-4-(2-methyl-3-oxopiperazin-1-yl)-5,7-dihydro-6H-pyrrolo[2,3-d]pyrimidin-6-one] | 520 nM | 0.3 μm | 170 nM |
| CC1(C)C(=O)Nc2nc(-c3nn(Cc4ccccc4F)c4ncccc34)nc(N3CCS(=O)(=O)CC3)c21 [Example 93, 4-(1,1-Dioxidothiomorpholin-4-yl)-2-[1-(2-fluorobenzyl)-1H-pyrazolo[3,4-b]pyridin-3-yl]-5,5-dimethyl-5,7-dihydro-6H-pyrrolo[2,3-d]pyrimidin-6-one] | 984 nM | 0.3 μm | 120 nM |
| CC(=O)NC1CCN(c2nc(-c3nn(Cc4ccccc4F)c4ncccc34)nc3c2C(C)(C)C(=O)N3)C1 (stereo not drawn) [Example 94, N-(1-{2-[1-(2-Fluorobenzyl)-1H-pyrazolo[3,4-b]pyridin-3-yl]-5,5-dimethyl-6-oxo-6,7-dihydro-5H-pyrrolo[2,3-d]pyrimidin-4-yl}pyrrolidin-3-yl)acetamide] | 277 nM | 0.1 μm | 140 nM |
| CC1(C)C(=O)Nc2nc(-c3nn(Cc4ccccc4F)c4ncccc34)nc(N[C@H]3CC[C@H](O)CC3)c21 [Example 95, 2-[1-(2-Fluorobenzyl)-1H-pyrazolo[3,4-b]pyridin-3-yl]-4-[(trans-4-hydroxycyclohexyl)amino]-5,5-dimethyl-5,7-dihydro-6H-pyrrolo[2,3-d]pyrimidin-6-one] | 228 nM | 0.1 μm | 4 nM |
| CC1(C)C(=O)Nc2nc(-c3nn(Cc4ccccc4F)c4ncc(F)cc34)nc(NCC3CC3(F)F)c21 (stereo not drawn) [Example 97, 4-{[(2,2-Difluorocyclopropyl)methyl]amino}-2-[5-fluoro-1-(2-fluorobenzyl)-1H-pyrazolo[3,4-b]pyridin-3-yl]-5,5-dimethyl-5,7-dihydro-6H-pyrrolo[2,3-d]pyrimidin-6-one] | 1350 nM | 0.1 μm | 63 nM |
| CC1(C)C(=O)Nc2nc(-c3nn(Cc4ccccc4F)c4ncc(F)cc34)nc(NCC3(O)CC3)c21 [Example 98, 2-[5-Fluoro-1-(2-fluorobenzyl)-1H-pyrazolo[3,4-b]pyridin-3-yl]-4-{[(1-hydroxycyclopropyl)methyl]amino}-5,5-dimethyl-5,7-dihydro-6H-pyrrolo[2,3-d]pyrimidin-6-one] | 214 nM | 0.01 μm | 4 nM |
| CC1(C)C(=O)Nc2nc(-c3nn(Cc4ccccc4F)c4ncc(F)cc34)nc(NCC3CC3(C)C)c21 (stereo not drawn) [Example 99, 4-{[(2,2-Dimethylcyclopropyl)methyl]amino}-2-[5-fluoro-1-(2-fluorobenzyl)-1H-pyrazolo[3,4-b]pyridin-3-yl]-5,5-dimethyl-5,7-dihydro-6H-pyrrolo[2,3-d]pyrimidin-6-one] | 10000 nM | 0.3 μm | 440 nM |
| O=C1Nc2nc(-c3nn(Cc4ccccc4F)c4ncc(F)cc34)nc(NCCC(F)(F)F)c2C12CCOC2 (stereo not drawn) [Example 100, 2′-[5-Fluoro-1-(2-fluorobenzyl)-1H-pyrazolo[3,4-b]pyridin-3-yl]-4′-[(3,3,3-trifluoropropyl)amino]-4,5-dihydrospiro[furan-3,5′-pyrrolo[2,3-d]pyrimidin]-6′(7′H)-one] | 4760 nM | 0.3 μm | 2800 nM |
| CC1(C)C(=O)Nc2nc(-c3nn(Cc4ccccc4F)c4ncc(F)cc34)nc(O)c21 [Example 102, 2-[5-Fluoro-1-(2-fluorobenzyl)-1H-pyrazolo[3,4-b]pyridin-3-yl]-4-hydroxy-5,5-dimethyl-5,7-dihydro-6H-pyrrolo[2,3-d]pyrimidin-6-one] | 156 nM | 1 μm | 74 nM |
| CC1(C)C(=O)Nc2nc(-c3nn(Cc4ccccc4F)c4ncc(F)cc34)nc(N3CCC(F)(F)CC3)c21 [Example 103, 4-(4,4-Difluoropiperidin-1-yl)-2-[5-fluoro-1-(2-fluorobenzyl)-1H-pyrazolo[3,4-b]pyridin-3-yl]-5,5-dimethyl-5,7-dihydro-6H-pyrrolo[2,3-d]pyrimidin-6-one] | 551 nM | 1 μm | 400 nM |
| CC1(C)C(=O)Nc2nc(-c3nn(Cc4ccccc4F)c4ncc(F)cc34)nc(N3CC(O)C3)c21 [Example 104, 2-[5-Fluoro-1-(2-fluorobenzyl)-1H-pyrazolo[3,4-b]pyridin-3-yl]-4-(3-hydroxyazetidin-1-yl)-5,5-dimethyl-5,7-dihydro-6H-pyrrolo[2,3-d]pyrimidin-6-one] | 482 nM | 0.1 μm | 80 nM |
| CC1(C)C(=O)Nc2nc(-c3nn(Cc4ccccc4F)c4ncccc34)nc(N3CC(N4CCCC4)C3)c21 [Example 105, 2-[1-(2-Fluorobenzyl)-1H-pyrazolo[3,4-b]pyridin-3-yl]-5,5-dimethyl-4-[3-(pyrrolidin-1-yl)azetidin-1-yl]-5,7-dihydro-6H-pyrrolo[2,3-d]pyrimidin-6-one] | 478 nM | 0.3 μm | 980 nM |
| CC1(C)C(=O)Nc2nc(-c3nn(Cc4ccccc4F)c4ncccc34)nc(N3CC(N)C3)c21 [Example 107, 4-(3-Aminoazetidin-1-yl)-2-[1-(2-fluorobenzyl)-1H-pyrazolo[3,4-b]pyridin-3-yl]-5,5-dimethyl-5,7-dihydro-6H-pyrrolo[2,3-d]pyrimidin-6-one] | 700 nM | 1 μm | 100 nM |
| Cc1ncc2c(-c3nc(NCCC(F)(F)F)c4c(n3)NC(=O)C4(C)C)nn(Cc3ccccc3F)c2n1 [Example 108, 2-[1-(2-Fluorobenzyl)-6-methyl-1H-pyrazolo[3,4-d]pyrimidin-3-yl]-5,5-dimethyl-4-[(3,3,3-trifluoropropyl)amino]-5,7-dihydro-6H-pyrrolo[2,3-d]pyrimidin-6-one] | 444 nM | 0.3 μm | 25 nM |
| CC1(C)C(=O)Nc2nc(-c3nn(Cc4ccccc4F)c4ncccc34)nc(O)c21 [Example 109, 2-[1-(2-Fluorobenzyl)-1H-pyrazolo[3,4-b]pyridin-3-yl]-4-hydroxy-5,5-dimethyl-5,7-dihydro-6H-pyrrolo[2,3-d]pyrimidin-6-one] | 81 nM | 0.03 μm | 50 nM |
| CCCOc1nc(-c2nn(Cc3ccccc3F)c3ncccc23)nc2c1C(C)(C)C(=O)N2 [Example 111, 2-[1-(2-Fluorobenzyl)-1H-pyrazolo[3,4-b]pyridin-3-yl]-5,5-dimethyl-4-propoxy-5,7-dihydro-6H-pyrrolo[2,3-d]pyrimidin-6-one] | 1620 nM | 0.3 μm | 320 nM |
